Values quoted from earlier work, collected in paper PMC7898221 (Drug Design, Development and Therapy, 2021).

Terminal t1/2 [h] | Tmax (after dosing) [h] | SMILES | Time to maximum plasma concentration (Tmax) (after dosing) [h] | Fraction metabolized by CYP3A4 into LC15-0636 (CYP3A4)
12.3 ± 5.8 | 1.0 to 5.0 | CC(C)c1nc(N(C)S(C)(=O)=O)nc(-c2ccc(F)cc2)c1/C=C/[C@@H](O)C[C@@H](O)CC(=O)O [Rosuvastatin] |  | 
 |  | N[C@@H](CC(=O)N1CCc2c(nc(C(F)(F)F)nc2C(F)(F)F)C1)CN1CC(F)(F)CCC1=O [Gemigliptin] | 0.5 to 3.0 | ~ 10%
